Experimental data published in US20070060605A1, “Compositions and methods for inhibiting platelet activation and thrombosis” (priority 2001, published 2007).

Legend:
platelets = experiment: F-actin assembly (FITC-phalloidin, flow cytometry); type: cell-based, human; details: agonist SFLLR
Source text: To determine whether or not the effects of the pyridazinone compound were limited to inhibition of alpha-granule secretion, the ability of the compound to inhibit F-actin assembly and αIIbβ3 activation was examined. F-actin assembly was detected using FITC-phalloidin and quantified by flow cytometry (Winokur et al., 1995, Blood 85, 1796-804; Oda et al., 1992, Blood 79, 920-7).

recombinant human PDE2 = recombinant human PDE2 (Homo sapiens, UniProt O00408); experiment: Phosphodiesterase inhibition, PDE2; type: biochemical; details: up to 1 μM
Sequence of recombinant human PDE2 (O00408 whole entry): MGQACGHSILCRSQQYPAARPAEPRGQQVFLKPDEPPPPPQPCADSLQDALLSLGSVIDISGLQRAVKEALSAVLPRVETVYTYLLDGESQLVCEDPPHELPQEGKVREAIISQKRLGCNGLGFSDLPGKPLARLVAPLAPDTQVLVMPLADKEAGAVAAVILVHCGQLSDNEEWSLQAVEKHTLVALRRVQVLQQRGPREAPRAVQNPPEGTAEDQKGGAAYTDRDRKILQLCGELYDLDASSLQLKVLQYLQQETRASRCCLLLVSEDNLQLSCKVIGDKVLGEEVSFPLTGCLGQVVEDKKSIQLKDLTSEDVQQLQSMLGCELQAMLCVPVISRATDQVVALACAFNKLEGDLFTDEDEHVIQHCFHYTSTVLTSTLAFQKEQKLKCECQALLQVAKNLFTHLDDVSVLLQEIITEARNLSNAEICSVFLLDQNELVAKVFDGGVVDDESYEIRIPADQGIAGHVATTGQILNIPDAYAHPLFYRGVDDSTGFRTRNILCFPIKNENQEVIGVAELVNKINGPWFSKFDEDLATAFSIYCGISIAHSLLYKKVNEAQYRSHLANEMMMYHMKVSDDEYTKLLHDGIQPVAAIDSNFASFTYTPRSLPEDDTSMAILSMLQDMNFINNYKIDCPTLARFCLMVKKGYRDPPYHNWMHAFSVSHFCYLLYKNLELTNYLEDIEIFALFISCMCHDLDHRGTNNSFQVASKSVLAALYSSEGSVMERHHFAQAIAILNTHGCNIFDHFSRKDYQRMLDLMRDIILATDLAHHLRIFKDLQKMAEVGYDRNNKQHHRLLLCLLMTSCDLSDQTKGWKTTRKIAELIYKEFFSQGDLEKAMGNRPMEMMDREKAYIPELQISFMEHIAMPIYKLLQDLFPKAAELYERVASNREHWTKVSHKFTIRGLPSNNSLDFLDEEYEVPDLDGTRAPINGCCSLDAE
Procedure: (§1) Intracellular cAMP generated by adenylyl cyclase in platelets is actively hydrolyzed by phosphodiesterase. […] Human platelets express PDE2, PDE3, and PDE5. Therefore, the compound was tested for its inhibitory effect on these phosphodiesterases using methods as described in Example 3.

human platelet PDE5 = target: T1, human platelet PDE5 (Homo sapiens, UniProt O76074); experiment: Phosphodiesterase inhibition, PDE5; type: biochemical; details: up to 1 μM
T1 construct: human platelet PDE5; from tissue; host or cells: human platelets
Procedure: as §1

[1] = tested on: PGE1-induced cAMP levels in platelets; experiment: Augmentation of PGE1-induced cAMP levels in platelets; type: cell-based, human; details: no single concentration
Procedure: One frequent target of anti-platelet agents is phosphodiesterase III (PDE III). […] The assay is performed as described by Liao et al., 1998, Eur J Pharmacol 349,107-114, incorporated herein by reference. Briefly, aliquots of PRP are exposed to increasing concentrations of the agent for 20 minutes. The PRP is then challenged with 1 μM PGE1 for 2 min The reaction is stopped by adding 10 mM EDTA, followed immediately by boiling for 2 min. The mixture is cooled to 4° C. and the precipitated protein is pelleted. cAMP content in the supernatant is quantitated using an enzyme immunoassay kit (Pharmacia-Amersham, N.J.) according to the instructions of the manufacturer.
In order to assess whether the compounds useful according to the invention might act through inhibition phosphodiesterase III, each was tested for its effect on PGE1-induced cAMP increase. Determination of platelet cAMP levels was performed as described by Liao et al., 1998, supra. Aliquots of PRP were exposed to increasing concentrations of the indicated compounds for 20 min. PRP was then challenged with 1 μM PGE1 for 2 min. The reaction was stopped with the addition of 10 mM EDTA followed immediately by boiling for 2 min. The mixture was then cooled to 4° C. and the precipitated protein was pelleted. Cyclic AMP content in the supernatant was then quantified using an enzyme immunoassay kit (Pharmacia-Amersham, N.J.) according to the instructions of the manufacturer.

[2] = listed as Pyridazinone compound
[3] = listed as pyridazinone compound

Structure (SMILES): CC1CC(=O)NN=C1c1ccc(N)c([N+](=O)[O-])c1 (stereo not shown) [6-(4-Amino-3-nitro-phenyl)-5-methyl-4,5-dihydro-2H-pyridazin-3-one]
- SFLLR-induced F-actin assembly / cytoskeleton rearrangement (platelets): interferes
- Inhibition of recombinant human PDE2 (recombinant human PDE2; [2]): No significant inhibition
- Inhibition of recombinant human PDE2 (recombinant human PDE2; [3]): little inhibition
- Inhibition of human platelet PDE5 (human platelet PDE5; [2]): No significant inhibition
- Inhibition of human platelet PDE5 (human platelet PDE5; [3]): little inhibition
- Effect on PGE1-stimulated cAMP levels in platelets [1]: augments
- Effect on PGE1-stimulated cAMP levels in platelets [1, 2]: augment
